Source: patent US10106519B2, “3-phenyl-7-hydroxy-isocoumarins as macrophage migration inhibitory factor (MIF) inhibitors” (The Provost, Fellows, Foundation Scholars, & the Other …, priority 2014, dated 2018)
“Also recorded” adds a separate entry of the source.

Columns and labels:
[1] = system: LPS induced TNF-α production; assay: Inhibition of LPS induced TNF-α production in RAW 264.7 macrophage cells (ELISA); format: cell-based, mouse
Procedure: RAW 264.7 macrophage cells were plated at 1×10^5/ml in 450 μl of medium in a 48 well plate. 16 hours later cells were treated with ISO-1 or Tautomerase Inhibitors at a final concentration of 10, 50 or 100 μM for 30 minutes before stimulation with 100 ng/ml LPS. Supernatants were collected after 20 hours for determination of TNF-α levels. TNF-α levels were determined using a TNF-α specific ELISA (CAT # DY410 R&D Syst).
96 well plates were coated with 50 μl of Capture Antibody ([…]) in PBS and sealed and incubated overnight at 4° C. Plates were then washed three times in 0.05% PBS Tween and plates blotted. Plates were blocked by adding 150 μl of 1% BSA in PBS (Gibco—cat no. 14190-094) to each well and incubated at room temperature for 2 hours. Plates were washed again as previously described. 50 μl of sample or standard was added to each well and incubated for overnight at 4° C. Plates were then washed again as described. 50 μl of the detection Antibody (200 ng/ml) in 1% BSA in PBS was added to each well and incubated for 2 hours at room temperature. Plates were then washed again as described. 50 μl of working concentration of Streptavidin—HRP was added to each well and plates were covered and incubated for 20 minutes at room temperature. 50 μl of substrate solution (One OPD tablet and one urea hydrogen peroxide/buffer tablet were dissolved in 20 ml of water to yield a ready to use buffered solution, Sigma—cat no. 9187-50) was added to each well and incubated for 20 minutes at room temperature. 25 μl of 2N H2SO4 was added to each well to stop the reaction. The optical density of each well was then measured with a spectrophotometer at 450 nm.
Initially the panel of 25 novel potential tautomerase inhibitors was screened in an in-vitro system. In order to do this we exploited the fact that MIF is needed for optimal LPS induced TNF-α production. We therefore reasoned that our potential TIs should be able to inhibit LPS induced TNF-α in RAW macrophage murine cells. RAW macrophage murine cells were plated at 37° C. in a humidified 5% CO2 incubator. 16 hours later the cells were pre-treated with each of the inhibitors at concentration of 100, 50 or 10 μM for 30 minutes 100 ng/ml of LPS was then added to the cells and supernatants were collected after 16 hours and analysed for TNF-α production by ELISA.

[2] = system: Lewis Lung carcinoma cells (LLC); assay: LLC-GLuc proliferation assay with rMIF; format: cell-based, mouse; settings: 100 μM inhibitor, 100 ng/ml rMIF, 48 hours (FIG. 5)
Procedure: LLC-GLuc cells were plated in a 6 well plate at a density of 5×10^4 cells/ml in DMEM supplemented with P/S, 10% FCS and L-Glu. After overnight adherence, 100 ng/ml MIF was added along with the inhibitors or DMSO to a total of 1 ml serum free medium. Cells were harvested after 48 hours by trypsinisation and counted in a haemocytometer.
The ability of candidate compounds to reduce cellular proliferation was also examined. For this assay, LLC cells were plated at a cell density of 5×10^4 cells/ml. The cells were then pre-treated with TI 19 or ISO-1 at a concentration of 100 μM. The cells were then treated with 100 ng/ml of recombinant MIF. The cells were incubated at 37° C. in a humidified 5% CO2 incubator and after 48 hours the cells were harvested and counted.

SMILES: Cc1ccccc1-c1cc2ccccc2c(=O)o1 [TI 19]
- reduction of TNF-α production, in words ([1]; 10 μM inhibitor (FIG. 2C)): more effective than ISO-1
- reduction of TNF-α production, in words ([1]; 50 μM inhibitor (FIG. 2B)): more effective than the commercial standard ISO-1
- reduction of TNF-α production, in words ([1]; concentration not given): more effective at reducing TNF-α than the commercially available ISO-1; also recorded: reduction in TNF-α production
- reduction of MIF induced proliferation, in words [2]: inhibited significantly; also recorded: reduced proliferation to levels comparable with untreated cells; also recorded: reduced cell proliferation
